Biological target: T1, DsuzOr22a (Drosophila suzukii, UniProt A0AB39ZTG6)
T1 construct: gene LOC108019602; full-length cDNA in pJFRC81 (GFP removed), UAS line expressed in D. melanogaster ab3A empty neuron (Or22ab-Gal4); with Odorant receptor coreceptor (Drosophila melanogaster, endogenous to the host neuron)
T1 sequence (A0AB39ZTG6 1-397): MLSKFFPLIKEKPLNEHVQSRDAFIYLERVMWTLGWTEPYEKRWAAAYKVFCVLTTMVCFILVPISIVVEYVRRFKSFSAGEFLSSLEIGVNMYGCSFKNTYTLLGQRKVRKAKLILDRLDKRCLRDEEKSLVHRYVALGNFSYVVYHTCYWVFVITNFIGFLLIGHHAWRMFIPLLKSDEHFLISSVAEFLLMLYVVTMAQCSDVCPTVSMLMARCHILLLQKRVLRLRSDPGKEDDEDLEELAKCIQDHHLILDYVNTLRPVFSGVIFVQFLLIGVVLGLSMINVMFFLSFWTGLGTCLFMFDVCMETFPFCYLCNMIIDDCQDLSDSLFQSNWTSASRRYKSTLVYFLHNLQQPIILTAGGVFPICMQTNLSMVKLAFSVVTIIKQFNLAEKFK
T1 sequence (Q9VNB5 1-486 partner): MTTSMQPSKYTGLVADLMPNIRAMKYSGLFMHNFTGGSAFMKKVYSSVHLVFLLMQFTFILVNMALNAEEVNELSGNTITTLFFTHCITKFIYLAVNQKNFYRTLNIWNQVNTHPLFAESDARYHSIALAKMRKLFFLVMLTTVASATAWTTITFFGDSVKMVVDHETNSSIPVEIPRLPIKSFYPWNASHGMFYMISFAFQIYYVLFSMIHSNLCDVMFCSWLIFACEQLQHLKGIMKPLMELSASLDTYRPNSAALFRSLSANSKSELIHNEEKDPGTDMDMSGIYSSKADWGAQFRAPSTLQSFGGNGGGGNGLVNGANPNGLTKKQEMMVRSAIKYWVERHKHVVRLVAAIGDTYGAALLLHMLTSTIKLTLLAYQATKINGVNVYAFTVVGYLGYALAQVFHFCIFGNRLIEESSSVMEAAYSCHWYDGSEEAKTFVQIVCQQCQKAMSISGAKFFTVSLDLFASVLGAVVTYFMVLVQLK
Assay: single sensillum recording, empty neuron
Type: cell-based
Details: odorant 10^-4 dilution in hexane

## CCCCOC(C)=O [butyl acetate]
  responses (spikes/s): toward several ripening fruit esters such as isobutyl acetate, butyl acetate, and isoamyl acetate

## CC(=O)OCCC(C)C [isoamyl acetate]
  responses (spikes/s): toward several ripening fruit esters such as isobutyl acetate, butyl acetate, and isoamyl acetate

## CC(=O)OCC(C)C [isobutyl acetate]
Also dilution series
  responses (spikes/s): Or22a, which has shifted its tuning toward several ripening fruit esters such as isobutyl acetate
